{
  "source": "patent US20250332178A1",
  "about": "“METHODS OF TREATING MYCOBACTERIAL INFECTIONS USING TETRACYCLINE COMPOUNDS” (priority 2018, published 2025)",
  "key": {"M. abscessus complex": {"test_system": "M. abscessus complex", "test": "MIC (CLSI broth dilution), RGM isolates", "assay_type": "cell-based", "conditions": "Mycobacteroides abscessus"}, "M. fortuitum group": {"test_system": "M. fortuitum group", "test": "MIC (CLSI broth dilution), RGM isolates", "assay_type": "cell-based", "conditions": "Mycolicibacterium fortuitum"}},
  "note": "Read-outs that look alike come from different tables or passages of the source.",
  "data": [
    {"smiles": "CC[C@H]1OC(=O)[C@H](C)[C@@H](O[C@H]2C[C@@](C)(OC)[C@@H](O)[C@H](C)O2)[C@H](C)[C@@H](O[C@@H]2O[C@H](C)C[C@H](N(C)C)[C@H]2O)[C@](C)(OC)C[C@@H](C)C(=O)[C@H](C)[C@@H](O)[C@]1(C)O", "note": "[clarithromycin]", "values": [
      {"measurement": "MIC", "setting": "M. abscessus complex; 168 h, isolate 12, Type 6 abscessus, extended reading (7 d), read-out: MIC, CLA Extended", "result": "> 32", "unit": "µg/mL"},
      {"measurement": "MIC", "setting": "M. abscessus complex; 240 h, isolate 7, Type 1 abscessus, extended reading (10 d), read-out: MIC, CLA Extended", "result": "> 32", "unit": "µg/mL"},
      {"measurement": "MIC", "setting": "M. abscessus complex; 240 h, isolate 9, Type 1 abscessus, extended reading (10 d), read-out: MIC, CLA Extended", "result": "> 32", "unit": "µg/mL"},
      {"measurement": "MIC", "setting": "M. abscessus complex; 240 h, isolate 11, Type 6 abscessus, extended reading (10 d), read-out: MIC, CLA Extended", "result": "> 32", "unit": "µg/mL"},
      {"measurement": "MIC", "setting": "M. abscessus complex; 240 h, isolate 15, Type 7 abscessus, extended reading (10 d), read-out: MIC, CLA Extended", "result": "> 32", "unit": "µg/mL"},
      {"measurement": "MIC", "setting": "M. abscessus complex; 240 h, isolate 16, Type 7 abscessus, extended reading (10 d), read-out: MIC, CLA Extended", "result": "> 32", "unit": "µg/mL"},
      {"measurement": "MIC", "setting": "M. abscessus complex; 240 h, isolate 17, Type 8 abscessus, extended reading (10 d), read-out: MIC, CLA Extended", "result": "> 32", "unit": "µg/mL"},
      {"measurement": "MIC", "setting": "M. abscessus complex; 264 h, isolate 8, Type 1 abscessus, extended reading (11 d), read-out: MIC, CLA Extended", "result": "> 32", "unit": "µg/mL"},
      {"measurement": "MIC", "setting": "M. abscessus complex; 264 h, isolate 10, Type 1 abscessus, extended reading (11 d), read-out: MIC, CLA Extended", "result": 32, "unit": "µg/mL"},
      {"measurement": "MIC", "setting": "M. abscessus complex; 264 h, isolate 13, Type 6 abscessus, extended reading (11 d), read-out: MIC, CLA Extended", "result": "> 32", "unit": "µg/mL"},
      {"measurement": "MIC", "setting": "M. abscessus complex; 336 h, isolate 1, MAB30, extended reading, up to/including 14 days, read-out: MIC, CLA Extended", "result": 1, "unit": "µg/mL"},
      {"measurement": "MIC", "setting": "M. abscessus complex; 336 h, isolate 2, MAB30, extended reading, up to/including 14 days, read-out: MIC, CLA Extended", "result": 2, "unit": "µg/mL"},
      {"measurement": "MIC", "setting": "M. abscessus complex; 336 h, isolate 3, MAB30, extended reading, up to/including 14 days, read-out: MIC, CLA Extended", "result": 2, "unit": "µg/mL"},
      {"measurement": "MIC", "setting": "M. abscessus complex; 336 h, isolate 4, massiliense, extended reading, up to/including 14 days, read-out: MIC, CLA Extended", "result": 2, "unit": "µg/mL"},
      {"measurement": "MIC", "setting": "M. abscessus complex; 336 h, isolate 5, massiliense/subsp. abs hybrid, extended reading, up to/including 14 days, read-out: MIC, CLA Extended", "result": "≤ 0.06", "unit": "µg/mL"},
      {"measurement": "MIC", "setting": "M. abscessus complex; 336 h, isolate 14, Type 6 abscessus, extended reading (14 d), read-out: MIC, CLA Extended", "result": "> 32", "unit": "µg/mL"},
      {"measurement": "MIC", "setting": "M. abscessus complex; isolate 1, MAB30, initial reading, generally 3-4 days, read-out: MIC, CLA Initial", "result": "≤ 0.06", "unit": "µg/mL"},
      {"measurement": "MIC", "setting": "M. abscessus complex; isolate 2, MAB30, initial reading, generally 3-4 days, read-out: MIC, CLA Initial", "result": "≤ 0.06", "unit": "µg/mL"},
      {"measurement": "MIC", "setting": "M. abscessus complex; isolate 3, MAB30, initial reading, generally 3-4 days, read-out: MIC, CLA Initial", "result": 0.5, "unit": "µg/mL"},
      {"measurement": "MIC", "setting": "M. abscessus complex; isolate 4, massiliense, initial reading, generally 3-4 days, read-out: MIC, CLA Initial", "result": 0.12, "unit": "µg/mL"},
      {"measurement": "MIC", "setting": "M. abscessus complex; isolate 5, massiliense/subsp. abs hybrid, initial reading, generally 3-4 days, read-out: MIC, CLA Initial", "result": "≤ 0.06", "unit": "µg/mL"},
      {"measurement": "MIC", "setting": "M. abscessus complex; isolate 6, Type 1 abscessus, initial reading, generally 3-4 days, read-out: MIC, CLA Initial", "result": 0.25, "unit": "µg/mL"},
      {"measurement": "MIC", "setting": "M. abscessus complex; isolate 7, Type 1 abscessus, initial reading, generally 3-4 days, read-out: MIC, CLA Initial", "result": 0.12, "unit": "µg/mL"},
      {"measurement": "MIC", "setting": "M. abscessus complex; isolate 8, Type 1 abscessus, initial reading, generally 3-4 days, read-out: MIC, CLA Initial", "result": 0.12, "unit": "µg/mL"},
      {"measurement": "MIC", "setting": "M. abscessus complex; isolate 9, Type 1 abscessus, initial reading, generally 3-4 days, read-out: MIC, CLA Initial", "result": 2, "unit": "µg/mL"},
      {"measurement": "MIC", "setting": "M. abscessus complex; isolate 10, Type 1 abscessus, initial reading, generally 3-4 days, read-out: MIC, CLA Initial", "result": 0.25, "unit": "µg/mL"},
      {"measurement": "MIC", "setting": "M. abscessus complex; isolate 11, Type 6 abscessus, initial reading, generally 3-4 days, read-out: MIC, CLA Initial", "result": 0.12, "unit": "µg/mL"},
      {"measurement": "MIC", "setting": "M. abscessus complex; isolate 12, Type 6 abscessus, initial reading, generally 3-4 days, read-out: MIC, CLA Initial", "result": 0.25, "unit": "µg/mL"},
      {"measurement": "MIC", "setting": "M. abscessus complex; isolate 13, Type 6 abscessus, initial reading, generally 3-4 days, read-out: MIC, CLA Initial", "result": 0.25, "unit": "µg/mL"},
      {"measurement": "MIC", "setting": "M. abscessus complex; isolate 14, Type 6 abscessus, initial reading, generally 3-4 days, read-out: MIC, CLA Initial", "result": "≤ 0.06", "unit": "µg/mL"},
      {"measurement": "MIC", "setting": "M. abscessus complex; isolate 15, Type 7 abscessus, initial reading, generally 3-4 days, read-out: MIC, CLA Initial", "result": 0.5, "unit": "µg/mL"},
      {"measurement": "MIC", "setting": "M. abscessus complex; isolate 16, Type 7 abscessus, initial reading, generally 3-4 days, read-out: MIC, CLA Initial", "result": "≤ 0.06", "unit": "µg/mL"},
      {"measurement": "MIC", "setting": "M. abscessus complex; isolate 17, Type 8 abscessus, initial reading, generally 3-4 days, read-out: MIC, CLA Initial", "result": 0.25, "unit": "µg/mL"},
      {"measurement": "MIC", "setting": "M. fortuitum group; 168 h, isolate 23, M. fortuitum, extended reading (7 d), read-out: MIC, CLA Extended", "result": "> 32", "unit": "µg/mL"},
      {"measurement": "MIC", "setting": "M. fortuitum group; 168 h, isolate 25, M. fortuitum, extended reading (7 d), read-out: MIC, CLA Extended", "result": "> 32", "unit": "µg/mL"},
      {"measurement": "MIC", "setting": "M. fortuitum group; 168 h, isolate 29, M. porcinum/M. boenickei, extended reading (7 d), read-out: MIC, CLA Extended", "result": "> 32", "unit": "µg/mL"},
      {"measurement": "MIC", "setting": "M. fortuitum group; 240 h, isolate 24, M. fortuitum, extended reading (10 d), read-out: MIC, CLA Extended", "result": "> 32", "unit": "µg/mL"},
      {"measurement": "MIC", "setting": "M. fortuitum group; 240 h, isolate 27, M. porcinum, extended reading (10 d), read-out: MIC, CLA Extended", "result": "> 32", "unit": "µg/mL"},
      {"measurement": "MIC", "setting": "M. fortuitum group; 240 h, isolate 28, M. porcinum/M. boenickei, extended reading (10 d), read-out: MIC, CLA Extended", "result": "> 32", "unit": "µg/mL"},
      {"measurement": "MIC", "setting": "M. fortuitum group; 336 h, isolate 26, M. porcinum, extended reading, up to/including 14 days, read-out: MIC, CLA Extended", "result": "> 32", "unit": "µg/mL"},
      {"measurement": "MIC", "setting": "M. fortuitum group; 336 h, isolate 30, M. porcinum/M. boenickei, extended reading, up to/including 14 days, read-out: MIC, CLA Extended", "result": "> 32", "unit": "µg/mL"},
      {"measurement": "MIC", "setting": "M. fortuitum group; 336 h, isolate 31, M. senegalense, extended reading, up to/including 14 days, read-out: MIC, CLA Extended", "result": 0.5, "unit": "µg/mL"},
      {"measurement": "MIC", "setting": "M. fortuitum group; 336 h, isolate 32, M. senegalense, extended reading, up to/including 14 days, read-out: MIC, CLA Extended", "result": 0.5, "unit": "µg/mL"},
      {"measurement": "MIC", "setting": "M. fortuitum group; 336 h, isolate 33, M. senegalense, extended reading, up to/including 14 days, read-out: MIC, CLA Extended", "result": 1, "unit": "µg/mL"},
      {"measurement": "MIC", "setting": "M. fortuitum group; 336 h, isolate 34, M. senegalense, extended reading, up to/including 14 days, read-out: MIC, CLA Extended", "result": 1, "unit": "µg/mL"},
      {"measurement": "MIC", "setting": "M. fortuitum group; isolate 23, M. fortuitum, initial reading, generally 3-4 days, read-out: MIC, CLA Initial", "result": 1, "unit": "µg/mL"},
      {"measurement": "MIC", "setting": "M. fortuitum group; isolate 24, M. fortuitum, initial reading, generally 3-4 days, read-out: MIC, CLA Initial", "result": 0.5, "unit": "µg/mL"},
      {"measurement": "MIC", "setting": "M. fortuitum group; isolate 25, M. fortuitum, initial reading, generally 3-4 days, read-out: MIC, CLA Initial", "result": 2, "unit": "µg/mL"},
      {"measurement": "MIC", "setting": "M. fortuitum group; isolate 26, M. porcinum, initial reading, generally 3-4 days, read-out: MIC, CLA Initial", "result": 0.5, "unit": "µg/mL"},
      {"measurement": "MIC", "setting": "M. fortuitum group; isolate 27, M. porcinum, initial reading, generally 3-4 days, read-out: MIC, CLA Initial", "result": 2, "unit": "µg/mL"},
      {"measurement": "MIC", "setting": "M. fortuitum group; isolate 28, M. porcinum/M. boenickei, initial reading, generally 3-4 days, read-out: MIC, CLA Initial", "result": 8, "unit": "µg/mL"}
    ]}
  ]
}
